In brackets after ≈: the same amount, converted by molar mass.
Legend:
Test in all cases: ≥ marks a high value that may be exact or a test limit, other limits are often not marked, values filed in µg/mL are converted to µM
[1] = system: Klebsiella pneumoniae CGMCC 1.1736
[2] = system: Staphylococcus aureus CGMCC 1.8721
[3] = system: Escherichia coli CGMCC 1.8732
[4] = system: Staphylococcus epidermidis CGMCC 1.4260
[5] = system: Pseudomonas aeruginosa CGMCC 1.2421
[6] = system: Bacillus subtilis CGMCC 1.3376

SMILES: CC[C@H](C)[C@H](NC(=O)[C@H](CO)NC(=O)CNC(=O)[C@@H](NC(=O)[C@@H](N)CCCN=C(N)N)[C@@H](C)CC)C(=O)N[C@@H](CC(C)C)C(=O)NCC(=O)N[C@@H](CCCN=C(N)N)C(=O)N[C@@H](CC(C)C)C(=O)N[C@@H](C)C(=O)N[C@@H](CCCCN)C(=O)NCC(=O)N[C@@H](CC(C)C)C(=O)N1CCC[C@H]1C(=O)N[C@H](C(=O)N[C@@H](CC(C)C)C(=O)N[C@@H](CCCN=C(N)N)C(=O)N[C@@H](CO)C(=O)N[C@@H](Cc1c[nH]c2ccccc12)C(=O)N[C@H](C(=O)N[C@@H](CCCCN)C(=O)N[C@@H](CC(N)=O)C(=O)N[C@@H](CCCN=C(N)N)C(N)=O)[C@@H](C)CC)[C@@H](C)O [RIGSILGRLAKGLPTLRSWIKNR]
- MIC [1]: 12.5 µM (≈ 32.6 µg/mL)
- MIC [2]: ≥ 100 µM
- MIC [3]: 12.5 µM (≈ 32.6 µg/mL)
- MIC [4]: 3.13 µM (≈ 8.15 µg/mL)
- MIC [5]: 12.5 µM (≈ 32.6 µg/mL)
- MIC [6]: 12.5 µM (≈ 32.6 µg/mL)

— DBAASP
